Measured values as given in ChEMBL document CHEMBL4017441, “Mitigating the inhibition of human bile salt export pump by drugs: opportunities provided by physicochemical property modulation, in silico modeling, and structural modification” (Drug Metab Dispos, 2012).
Where a name gives a salt, the structure may show the parent alone.

Target: Bile salt export pump (Homo sapiens, UniProt O95342)
Format: ADME

| Structure (SMILES) | IC50 |
| --- | --- |
| Cc1ccccc1C(OCCN(C)C)c1ccccc1 (centres undefined) [ORPHENADRINE] | > 1000 µM |
| C[C@@H]1O[C@@H](O[C@H]2C[C@@H](O)[C@]3(CO)[C@H]4[C@H](O)C[C@]5(C)[C@@H](C6=CC(=O)OC6)CC[C@]5(O)[C@@H]4CC[C@]3(O)C2)[C@H](O)[C@H](O)[C@H]1O [OUABAIN] | > 1000 µM |
| CNCC(O)c1ccc(O)cc1 (centres undefined) [OXEDRINE] | > 1000 µM |
| CN(C(=O)CN(CCO)CC(=O)N(C)C(C)(C)Cc1ccccc1)C(C)(C)Cc1ccccc1 [OXETHAZAINE] | < 10 µM |
| CCCOc1ccc2nc(NC(=O)OC)[nH]c2c1 [OXIBENDAZOLE] | > 1000 µM |
| C=CCOc1ccccc1OCC(O)CNC(C)C (centres undefined) [OXPRENOLOL] | > 1000 µM |
| Oc1cccc2cccnc12 [OXYQUINOLINE] | > 1000 µM |
| CC(C)(CO)[C@@H](O)C(=O)NCCC(=O)O [PANTOTHENIC ACID] | > 1000 µM |
| COc1ccc(Cc2nccc3cc(OC)c(OC)cc23)cc1OC [PAPAVERINE] | < 10 µM |
| CCCCc1ccc2[nH]c(NC(=O)OC)nc2c1 [PARBENDAZOLE] | > 1000 µM |
| Fc1ccc([C@@H]2CCNC[C@H]2COc2ccc3c(c2)OCO3)cc1 [PAROXETINE HYDROCHLORIDE] | 68.9 µM |
| N=C(N)c1ccc(OCCCCCOc2ccc(C(=N)N)cc2)cc1 [PENTAMIDINE] | > 1000 µM |
| C1CCc2nnnn2CC1 [PENTYLENETETRAZOL] | > 1000 µM |
| C1CCC(C(CC2CCCCN2)C2CCCCC2)CC1 (centres undefined) [PERHEXILINE] | 14.4 µM |
| OCCN1CCN(CCCN2c3ccccc3Sc3ccc(Cl)cc32)CC1 [PERPHENAZINE] | 34.8 µM |
| NC(=O)NC(=O)Cc1ccccc1 [PHENACEMIDE] | > 1000 µM |
| NNCCc1ccccc1 [PHENELZINE] | > 897 µM |
| CC(Oc1ccccc1)C(=O)N[C@@H]1C(=O)N2[C@@H]1SC(C)(C)[C@@H]2C(=O)O (some centres undefined) [PHENETHICILLIN] | < 10 µM |
| [H]/N=C(/N)N/C(=N/[H])NCCc1ccccc1 [PHENFORMIN] | > 1000 µM |
| CN(C)CCC(c1ccccc1)c1ccccn1 (centres undefined) [PHENIRAMINE MALEATE] | > 1000 µM |
| CN1C(=O)CC(c2ccccc2)C1=O (centres undefined) [PHENSUXIMIDE] | > 1000 µM |
| CC(N/C(=N\C#N)Nc1ccncc1)C(C)(C)C (centres undefined) [PINACIDIL ANHYDROUS] | 161 µM |

| Structure (SMILES) | IC50 |
| --- | --- |
| CCc1ccc(CCOc2ccc(CC3SC(=O)NC3=O)cc2)nc1 (centres undefined) [PIOGLITAZONE] | 0.262 µM |
| CCN1CCN(C(=O)N[C@@H](C(=O)N[C@@H]2C(=O)N3[C@@H]2SC(C)(C)[C@@H]3C(=O)O)c2ccccc2)C(=O)C1=O [PIPERACILLIN] | 197 µM |
| CCCCOCCOCCOCc1cc2c(cc1CCC)OCO2 [PIPERONYL BUTOXIDE] | < 10 µM |
| CN1CCN(CC(=O)N2c3ccccc3C(=O)Nc3cccnc32)CC1 [PIRENZEPINE] | > 1000 µM |
| NS(=O)(=O)c1cc(C(=O)O)cc(N2CCCC2)c1Oc1ccccc1 [PIRETANIDE] | > 791 µM |
| C[n+]1ccccc1/C=N/O [PRALIDOXIME] | > 1000 µM |
| O=C(C1CCCCC1)N1CC(=O)N2CCc3ccccc3C2C1 (centres undefined) [PRAZIQUANTEL] | 60.3 µM |
| COc1cc2nc(N3CCN(C(=O)c4ccco4)CC3)nc(N)c2cc1OC [PRAZOSIN] | 172 µM |
| COc1cc(NC(C)CCCN)c2ncccc2c1 (centres undefined) [PRIMAQUINE] | 53.1 µM |
| CCCC(C(=O)OCCN(CC)CC)(c1ccccc1)c1ccccc1 [PROADIFEN] | < 13.2 µM |
| CCCN(CCC)S(=O)(=O)c1ccc(C(=O)O)cc1 [PROBENECID] | 587 µM |
| CCCc1c2oc(C(=O)O)cc(=O)c2cc2c(=O)cc(C(=O)O)oc12 [PROBICROMIL] | > 1000 µM |
| CC(C)(Sc1cc(C(C)(C)C)c(O)c(C(C)(C)C)c1)Sc1cc(C(C)(C)C)c(O)c(C(C)(C)C)c1 [PROBUCOL] | > 1000 µM |
| CCN(CC)CCOC(=O)c1ccc(N)cc1 [PROCAINE] | > 1000 µM |
| CCCc1c2c(cc3c(=O)cc(C(=O)O)oc13)CCCC2 [PROCROMIL] | 606 µM |
| CCCNCC(O)COc1ccccc1C(=O)CCc1ccccc1 (centres undefined) [PROPAFENONE] | 53.7 µM |
| CC(C)[N+](C)(CCOC(=O)C1c2ccccc2Oc2ccccc21)C(C)C [PROPANTHELINE BROMIDE] | 291 µM |
| CC(Cc1ccc2c(c1)OCO2)NCC(O)c1ccc(O)c(O)c1 (centres undefined) [PROTOKYLOL HYDROCHLORIDE] | > 982 µM |
| CNCCCC1c2ccccc2C=Cc2ccccc21 [PROTRIPTYLINE] | 129 µM |
| CCCc1c2c(c(O)c3c(=O)cc(C(=O)O)oc13)CCCC2 [PROXICROMIL] | 30 to 30.5 µM |
| CN(C)C(=O)Oc1ccc[n+](C)c1 [PYRIDOSTIGMINE BROMIDE] | > 1000 µM |
| COc1ccc(CN(CCN(C)C)c2ccccn2)cc1 [PYRILAMINE] | > 1000 µM |
| CCc1nc(N)nc(N)c1-c1ccc(Cl)cc1 [PYRIMETHAMINE] | 200 µM |

| Structure (SMILES) | IC50 |
| --- | --- |
| CN1CC[C@@]2(C)c3cc(OC(=O)N4CCc5ccccc5C4)ccc3N(C)[C@@H]12 [QUILOSTIGMINE] | < 10 µM |
| CCN(CC)CCCC(C)Nc1c2ccc(Cl)cc2nc2ccc(OC)cc12 (centres undefined) [QUINACRINE] | 101 µM |
| C=C[C@H]1C[N@@]2CC[C@H]1C[C@H]2[C@H](O)c1ccnc2ccc(OC)cc12 [QUININE] | 98.8 µM |
| COc1cc(Nc2ncc(F)c(Nc3ccc4c(n3)NC(=O)C(C)(C)O4)n2)cc(OC)c1OC [R-406] | 197 µM |
| C[C@H](NCc1ccc(OCc2ccccc2F)cc1)C(N)=O [RALFINAMIDE] | 175 µM |
| O=C(O)CCn1c2c(c3ccccc31)C[C@H](NS(=O)(=O)c1ccc(F)cc1)CC2 [RAMATROBAN] | 62.4 µM |
| CCC(=O)NCC[C@@H]1CCc2ccc3c(c21)CCO3 [RAMELTEON] | 85 to 85.4 µM |
| CC(Cc1ccccc1)(NC(=O)CN)c1ccccc1 (centres undefined) [REMACEMIDE] | 288 µM |
| CCN1CCC[C@H]1CNC(=O)c1c(OC)ccc(Br)c1OC [REMOXIPRIDE] | < 10 µM |
| COC(=O)[C@H]1[C@H]2C[C@@H]3c4[nH]c5cc(OC)ccc5c4CCN3C[C@H]2C[C@@H](OC(=O)c2cc(OC)c(OC)c(OC)c2)[C@@H]1OC [RESERPINE] | < 10 µM |
| Nc1nc2ccc(OC(F)(F)F)cc2s1 [RILUZOLE] | 139 µM |
| Cc1c(C(=O)NN2CCCCC2)nn(-c2ccc(Cl)cc2Cl)c1-c1ccc(Cl)cc1 [RIMONABANT] | < 10 µM |
| CS(=O)(=O)c1ccc(C2=C(c3ccccc3)C(=O)OC2)cc1 [ROFECOXIB] | 95.4 µM |
| CCCN1CCCC[C@H]1C(=O)Nc1c(C)cccc1C [ROPIVACAINE] | 646 µM |
| O=C(O)c1c(Cl)c(Cl)c(Cl)c(Cl)c1-c1c2cc(I)c(=O)c(I)c-2oc2c(I)c(O)c(I)cc12 [ROSE BENGAL SODIUM] | < 10 µM |
| O=[N+]([O-])c1cc([As](=O)(O)O)ccc1O [ROXARSONE] | > 1000 µM |
| O=C(O)CCCCCCCNC(=O)c1ccccc1O [SALCAPROZIC ACID] | > 751 µM |
| OCc1ccccc1O[C@@H]1O[C@H](CO)[C@@H](O)[C@H](O)[C@H]1O [SALICIN] | > 1000 µM |
| NC(=O)c1ccccc1O [SALICYLAMIDE] | > 1000 µM |
| O=C(Oc1ccccc1C(=O)O)c1ccccc1O [SALSALATE] | > 1000 µM |
| CN1[C@@H]2C[C@@H](OC(=O)[C@H](CO)c3ccccc3)C[C@H]1[C@@H]1O[C@@H]12 [SCOPOLAMINE] | > 1000 µM |
| CCN(CC)CCNC(=O)c1ccc(NS(C)(=O)=O)cc1 [SEMATILIDE] | > 1000 µM |
| CC1=C(C)C(=O)C(C(CCCCCC(=O)O)c2ccccc2)=C(C)C1=O (centres undefined) [SERATRODAST] | < 14.3 µM |
